Data on two molecules can be found in article PMC12693701, “Glucosinolate-Derived Metabolites from Barbarea vulgaris (Brassicaceae): Evaluation of Antimicrobial, Antioxidant, and Anti-Inflammatory Potentials” (Molecules, 2025).

A value given as a limit tells only on which side of the number the result lay.

Assay [1] has as its target T1, Type I-B soybean lipoxygenase (Glycine max, UniProt P08170).
T1 sequence (P08170 1-839): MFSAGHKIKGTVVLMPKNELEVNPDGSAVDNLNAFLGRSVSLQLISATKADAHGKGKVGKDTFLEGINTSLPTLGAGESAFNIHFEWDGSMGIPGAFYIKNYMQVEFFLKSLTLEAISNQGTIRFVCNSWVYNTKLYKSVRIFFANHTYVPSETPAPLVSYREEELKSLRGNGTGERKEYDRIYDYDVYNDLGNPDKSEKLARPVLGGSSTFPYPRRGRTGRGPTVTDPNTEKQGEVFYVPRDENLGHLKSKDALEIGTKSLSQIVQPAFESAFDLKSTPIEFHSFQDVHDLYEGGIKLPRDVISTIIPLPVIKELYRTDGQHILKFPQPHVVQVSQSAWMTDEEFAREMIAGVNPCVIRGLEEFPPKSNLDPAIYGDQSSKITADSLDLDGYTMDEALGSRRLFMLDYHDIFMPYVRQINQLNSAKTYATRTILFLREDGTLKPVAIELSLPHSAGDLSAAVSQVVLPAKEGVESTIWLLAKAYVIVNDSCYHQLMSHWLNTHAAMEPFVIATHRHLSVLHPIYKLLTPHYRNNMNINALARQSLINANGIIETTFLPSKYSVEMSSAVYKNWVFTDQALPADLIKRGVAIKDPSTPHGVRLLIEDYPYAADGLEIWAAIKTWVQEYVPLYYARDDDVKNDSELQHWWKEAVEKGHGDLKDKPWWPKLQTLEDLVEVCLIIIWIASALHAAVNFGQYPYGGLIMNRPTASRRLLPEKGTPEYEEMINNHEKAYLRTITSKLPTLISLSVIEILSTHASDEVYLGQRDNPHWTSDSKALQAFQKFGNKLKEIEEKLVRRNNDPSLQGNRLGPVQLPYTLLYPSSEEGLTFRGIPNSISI
Description: LOX inhibition assay. The following applies: 100 µM; mean ± SD; read-out: Percentage of LOX Inhibition. It is filed as biochemical. The procedure: Type I-B soybean lipoxygenase is a commonly used enzyme for studying the anti-inflammatory properties of various compounds [19]. The lipoxygenase (LOX) inhibition assay measures the enzyme’s ability to convert sodium linoleate to 13-hydroperoxylinoleic acid. The inhibition of the enzyme by the investigated compounds was determined by measuring the absorbance at 234 nm for each prepared sample. Specifically, the test compound, Tris buffer, an enzyme solution (5 × 10^3 units/mL in saline), and sodium linoleate (3 mM in Tris buffer, pH 9), were added to a UV cuvette, and the absorbance was recorded. […] All measurements were performed in triplicate.

A short description of assay [2]: DPPH radical scavenging assay. To be noted: mean ± SD. The procedure: The DPPH assay was used to assess the ability of the tested compounds to scavenge reactive radical species. Stock solutions of the investigated compounds were prepared in DMSO and then diluted with methanol to a final volume of 1000 µL. An equal volume of a 50 µM DPPH solution in methanol was then added to the prepared mixture. The final concentrations of the test compounds were 25, 50, and 100 µM. After thorough mixing, the samples were incubated in the dark at room temperature for 20 to 60 min. Methanol was used as a blank, and absorbance was measured at 517 nm after incubation. All measurements were performed in triplicate.

The next assay deals with B. subtilis ATCC 6633. Description: Inhibition of biofilm formation (crystal violet). The class given is cell-based, Bacillus subtilis. The procedure:
(§1) The procedure involved preparing 96-well microtiter plates (Sarstedt, Nümbrecht, Germany) by adding 100 μL of Mueller-Hinton nutrient broth to each well. A 10 μL aliquot of bacterial suspension (adjusted to 1.0 McFarland for Gram-positive bacteria and 0.5 McFarland for Gram-negative bacteria) was added to the wells. The plates were then incubated at 37 °C for 48 h to allow biofilm formation. After incubation, the wells were washed twice with 200 μL of sterile 0.85% saline to remove non-adherent and weakly adherent cells. Biofilms formed by the adherent bacteria were fixed with 100 μL of methanol until fully evaporated. The biofilms were then stained using 0.1% (w/v) crystal violet (Fluka Chemie AG, Buchs, Switzerland) and left at room temperature for 20 min. After staining, excess dye was washed off with deionized water, followed by 96% ethanol. Controls included wells containing only nutrient broth to check for sterility and nonspecific binding. Background absorbance from the sterile medium, fixative, and dye was subtracted from the OD readings of the test samples. All experiments were performed in triplicate.
(§2) To assess the inhibition of biofilm formation, 96-well microtiter plates (Sarstedt, Nümbrecht, Germany) were prepared by dispensing 100 μL of Mueller-Hinton broth into each well. From stock solutions of tested compounds (at 10 mg/mL), 100 μL was added to the first row of the plate, followed by twofold serial dilutions (from 5 to 0.039 mg/mL) using a multichannel pipette (Eppendorf AG, Hamburg, Germany). Subsequently, 10 μL of fresh bacterial suspension (adjusted to 0.5 McFarland for Gram-negative and 1.0 McFarland for Gram-positive bacteria) was added to each well. The plates were incubated at 37 °C for 48 h. After incubation, the contents of the wells were carefully removed by tapping, and the remainder of the experiment was conducted following the procedure described above.
(§3) Controls consisted of wells containing only broth or broth with the tested compounds to assess sterility and nonspecific binding. Background absorbance was subtracted from test readings as described earlier. All experiments were performed in triplicate, and tetracycline (Sigma-Aldrich, St. Louis, MO, USA), dissolved in nutrient broth, was used as a reference compound.

The subject of another assay is K. pneumoniae. Description: Inhibition of biofilm formation (crystal violet). The class given is cell-based, Klebsiella pneumoniae. The procedure:
as §1, §2, §3

Another assay concerns S. aureus ATCC 25923. In words: Inhibition of biofilm formation (crystal violet). The class given is cell-based, Staphylococcus aureus. The procedure:
as §1, §2, §3

Another assay relates to P. mirabilis. Description: Inhibition of biofilm formation (crystal violet). The class given is cell-based, Proteus mirabilis. On the procedure: as §1, §2, §3
A further assay concerns S. enterica. In words: Inhibition of biofilm formation (crystal violet). To be noted: biofilm coverage reduced by 90%. It is filed as cell-based, Salmonella enterica. The procedure: as §1, §2, §3
[3] abbreviates: biofilm coverage reduced by 50%.
The mark [4] stands for this setting: biofilm coverage reduced by 90%.

`O=c1c(O)c(-c2ccc(O)c(O)c2)oc2cc(O)cc(O)c12` [Quercetin, reference compound]: in assay [1], the inhibition at 100 µM amounted to 92 ± 0.9%. The “DPPH Scavenging Ability” value in assay [2] (25 µM, 20 min) was 95.3 ± 0.8%; in assay [2] (25 µM, 60 min), 95.1 ± 0.9%; in assay [2] (50 µM, 20 min) it was 96.8 ± 1.0%; in assay [2] (50 µM, 60 min), 96.5 ± 0.9%; in assay [2] (100 µM, 20 min), 95.1 ± 0.9%; in assay [2] (100 µM, 60 min), 95.4 ± 0.8%.

For the molecule `CN(C)[C@@H]1C(O)=C(C(N)=O)C(=O)[C@@]2(O)C(O)=C3C(=O)c4c(O)cccc4[C@@](C)(O)[C@H]3C[C@@H]12` [Tetracycline, reference compound], the BIC50 result with B. subtilis ATCC 6633 (setting [3]) is “˂15.6 µg/mL”; in the assay on K. pneumoniae (setting [3]) it was 6 µg/mL; in the assay on S. aureus ATCC 25923 (setting [3]), 250 µg/mL; in the assay on P. mirabilis (setting [3]), 320 µg/mL. Besides, the BIC90 was 15.6 µg/mL in the assay with B. subtilis ATCC 6633 (setting [4]); 125 µg/mL in the assay on K. pneumoniae (setting [4]); 300 µg/mL in the assay with S. aureus ATCC 25923 (setting [4]); >1000 µg/mL with P. mirabilis (setting [4]); 180 µg/mL in the assay on S. enterica.
